{"source": "patent US20080194467A1", "about": "“CANCER TREATMENT METHODS USING CADHERIN ANTAGONISTS IN COMBINATION WITH ANTICANCER AGENTS” (ADHEREX TECHNOLOGIES, INC., priority 2006, published 2008)", "key": {"[1]": {"tested_on": "Ovarian Tumor Cell Line A2780", "conditions": "paclitaxel 30 mg/kg i.v. qodx5; ADH-1 100 mg/kg i.p. Day 1 then b.i.d.x20", "procedure": "In this set of experiments, 100 mg/kg of ADH-1 was administered i.p. as a single dose on Day 1 and then […].) for the duration of the treatment period. 30 mg/kg paclitaxel was administered i.v. on a qodx5 schedule starting on Day 2. For the combination groups, paclitaxel was always administered 5 minutes after the morning ADH-1 dose."}, "A375 tumors": {"tested_on": "A375 tumors", "experiment": "In vivo combination therapy of A375 tumors, ADH-1 with temozolomide", "conditions": "ADH-1 100 mg/kg i.p. qdx8; TMZ 100 mg/kg p.o. qdx5; administered separately", "procedure": "100 mg/kg of TMZ was administered p.o. on a qdx5 schedule starting on Day 4. For the combination groups, TMZ was always administered 1 hour after the ADH-1 dose. A375 tumors were resistant to both TMZ and ADH-1 when administered separately."}, "[2]": {"tested_on": "human melanoma cell line DM738", "type": "in vivo"}, "[3]": {"tested_on": "human melanoma xenografts (DM366 and DM738)", "experiment": "Isolated limb infusion (ILI) of melphalan with or without systemic ADH-1 in nude rats bearing human melanoma xenografts", "type": "in vivo", "conditions": "day 60 after 15 minute regional infusion into the hind limb"}}, "note": "Read-outs that look alike come from different tables or passages of the source. Bridge positions count the residues as written; N and C are the ends.", "data": [{"compound": "CC(=O)O[C@H]1C(=O)[C@@]2(C)[C@H]([C@H](OC(=O)c3ccccc3)[C@]3(O)C[C@H](OC(=O)[C@H](O)[C@@H](NC(=O)c4ccccc4)c4ccccc4)C(C)=C1C3(C)C)[C@]1(OC(C)=O)CO[C@@H]1C[C@@H]2O", "note": "[paclitaxel]", "values": [{"measurement": "complete cures out of 10 animals", "setting": "[1]", "value": 10, "unit": "%"}, {"measurement": "delay in tumor growth", "setting": "[1]", "value": "transient delay in tumor growth"}]}, {"compound": "N—Ac-CHAVC-NH2 (disulfide 1-5 (inferred)) [ADH-1]", "values": [{"measurement": "tumor response to treatment (resistance)", "setting": "A375 tumors", "value": "resistant"}, {"measurement": "anti-tumor response", "setting": "[2]; DM738 tumors, single ILI of melphalan and/or systemic ADH-1, compared to vehicle control", "value": "no detectable anti-tumor response"}]}, {"compound": "N[C@@H](Cc1ccc(N(CCCl)CCCl)cc1)C(=O)O", "note": "[melphalan]", "values": [{"measurement": "increase in tumor volume", "setting": "[3]", "value": 439.4, "unit": "%"}, {"measurement": "anti-tumor response", "setting": "[2]; rat, in vivo", "value": "no detectable anti-tumor response"}]}]}
